Columns and labels:
TRP2 = assay: RT-PCR of melanogenesis marker TRP2 in B16F10 cells treated with α-MSH; format: cell-based, mouse; conditions: α-MSH plus peptide 10 μg/ml; 4 days; Fig. 8
B16F10 세포주 = assay: Cytotoxicity test, SRB colorimetry, B16F10 cells; format: cell-based; conditions: 10 ng/ml to 100 μg/ml, 72 h, Fig. 11
C57BL/6 마우스의 멜라노사이트 = assay: Melanin production in melanocytes induced with α-MSH; format: cell-based, mouse; conditions: α-MSH 200 μg/ml; peptide 10 μg/ml; 3 days; Fig. 4
B16F10 세포 = assay: Microscopic observation of melanosomes in B16F10 cells treated with α-MSH; format: cell-based, mouse; conditions: α-MSH 200 μg/ml; peptide 10 μg/ml; 4 days; Fig. 7
[1] = system: TRP1(tyrosinase-related protein-1); assay: RT-PCR of melanogenesis marker TRP1 in B16F10 cells treated with α-MSH; format: cell-based, mouse; conditions: α-MSH plus peptide 10 μg/ml; 4 days; Fig. 8
[2] = system: MITF(microphthalmia-associated transcription factor); assay: RT-PCR of melanogenesis marker MITF in B16F10 cells treated with α-MSH; format: cell-based, mouse; conditions: α-MSH plus peptide 10 μg/ml; 4 days; Fig. 8
HaCat 세포 = assay: Cytotoxicity test, SRB colorimetry, HaCat cells; format: cell-based; conditions: 10 ng/ml to 100 μg/ml, 72 h, Fig. 11
NIH3T3 세포 = assay: Cytotoxicity test, SRB colorimetry, NIH3T3 cells; format: cell-based; conditions: 10 ng/ml to 100 μg/ml, 72 h, Fig. 11
피브로넥틴 = assay: Fibronectin production in NIH3T3 fibroblasts (ELISA); format: cell-based; conditions: peptide 1 and 10 μg/ml, 72 h, Fig. 10
타이로시나아제 = assay: Tyrosinase activity (L-DOPA, 405 nm) in lysate of B16F10 cells treated with α-MSH; format: cell-based, mouse; conditions: peptide 1 and 10 μg/ml, 4 days, versus α-MSH alone, Fig. 6
NIH-3T3 세포 = assay: Peptide stability: storage at 40℃ in 50 mM Tris-HCl (pH 8.0), remaining activity by MTT assay; format: physicochemical; conditions: 50 mM Tris-HCl pH 8.0, sampled at days 0-100, peptide 10 ㎍/ml, TGF-β1 1 ㎍/ml, Fig. 3
프로콜라겐 = assay: Procollagen production in NIH3T3 fibroblasts (ELISA); format: cell-based; conditions: peptide 1 and 10 μg/ml, 72 h, Fig. 9

| Substance | TRP2 expression (RT-PCR) (TRP2) | cell number / cytotoxicity (B16F10 세포주) | melanin production (visual) (C57BL/6 마우스의 멜라노사이트) | melanosomes induced by α-MSH (microscopy) (B16F10 세포) | TRP1 expression (RT-PCR) [1] | MITF expression (RT-PCR) [2] | cell number / cytotoxicity (HaCat 세포) | cell number / cytotoxicity (NIH3T3 세포) | fibronectin production (피브로넥틴) | decrease of tyrosinase activity (타이로시나아제) | remaining activity over storage time (stability) (NIH-3T3 세포) | procollagen production (프로콜라겐) |
| --- | --- | --- | --- | --- | --- | --- | --- | --- | --- | --- | --- | --- |
| NH2-Gly-Arg-Gly-Asp-Tyr-Leu-Arg-Ser-Ala-Asp-Thr-OH (H-GRGDYLRSADT-OH) [서열2 펩타이드] | 발현을 억제한다 | 세포 수의 감소는 전혀 관찰 되지 않았으며 | α-MSH를 처리하지 않았을 때와 유사한 멜라닌 생성 | 사라지는 | 발현을 억제한다 | 발현을 억제한다 | 세포 수의 감소는 전혀 관찰 되지 않았으며 | 세포 수의 감소는 전혀 관찰 되지 않았으며 | 우수한 피브로넥틴 생성 촉진능 | ≥ 30% | 활성도가 오랫동안 지속됨 | 우수한 프로콜라겐 생성 촉진능 |
| 재조합 TGF-β1: 대장균으로부터 생산된 재조합 TGF-β1(Sigma), control in the stability test | – | – | – | – | – | – | – | – | – | – | 활성도가 급격히 감소됨 | – |
